Earlier results on one molecule are cited in US20130053277A1 (priority 2010, published 2013).

This data set deals with influenza A virus M2 ion channel, S31N mutant (Influenza A virus, UniProt P0DOF5, S31N). The settings on record: cited from earlier work.

In the case of `NC12CC3CC(CC(C3)C1)C2` [amantadine, Amantadine], the “isochronic apparent inhibitory binding constant” value was 200 JLM.
